Assay results as given in patent US20250122169A1, “PPARG INVERSE AGONISTS AND USES THEREOF” (Flare Therapeutics Inc., priority 2021, published 2025).

What was measured:
[1] = target: T1, PPARG/RXRA LBD heterodimer (Homo sapiens, UniProt P37231); assay: PPARγ-MED1 blockade assay (TR-FRET); format: biochemical; settings: for EC50: TR-FRET, MED1 LxxLL peptide, 80 nM Rosiglitazone, 3 hours; for Emax: maximal extent, GW9662 defined as 100%, DMSO 0%, read-out: % MED1 blockade relative to GW9662
T1 construct: His-TEV-Q203-Y477; Uniprot ID P37231-2; made in house; host or cells: E. coli
T1 sequence (P37231 203-477 isoform P37231-2): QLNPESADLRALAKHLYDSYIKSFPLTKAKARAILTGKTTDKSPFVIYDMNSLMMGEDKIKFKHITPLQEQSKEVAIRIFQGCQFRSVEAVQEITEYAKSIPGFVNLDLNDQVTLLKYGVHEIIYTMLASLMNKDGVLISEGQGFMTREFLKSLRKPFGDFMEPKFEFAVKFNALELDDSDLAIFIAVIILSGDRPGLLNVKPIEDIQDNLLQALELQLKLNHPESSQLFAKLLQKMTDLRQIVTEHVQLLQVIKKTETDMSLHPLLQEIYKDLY
T1 sequence (P19793 228-462 partner limits assumed): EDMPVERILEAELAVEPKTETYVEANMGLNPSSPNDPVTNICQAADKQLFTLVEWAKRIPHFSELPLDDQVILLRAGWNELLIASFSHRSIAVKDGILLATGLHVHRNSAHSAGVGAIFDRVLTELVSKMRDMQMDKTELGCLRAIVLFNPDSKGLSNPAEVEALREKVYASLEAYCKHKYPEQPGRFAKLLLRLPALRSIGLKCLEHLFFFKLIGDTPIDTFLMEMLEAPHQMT
Experimental: Compound potency (IC50) and maximal extent of MED1 repulsion to PPARG were assessed a TR-FRET binding assay measuring association of a biotinylated MED1 LxxLL peptide (Biotin-[…]-amide) to PPARG/RXRA LBD heterodimer.

[2] = target: T2, PPARG/RXRA LBD heterodimer (Homo sapiens, UniProt P37231); assay: PPARγ-NCOR1 recruitment assay (TR-FRET); format: biochemical; settings: for Emax: 3 h, maximal extent, T0070907 defined as 100%, DMSO 0%, read-out: % NCOR recruitment relative to T907; for EC50: TR-FRET, NCOR1 ID2 peptide, 80 nM Rosiglitazone, 3 hours, read-out: PPARG-NCOR recruitment assay EC50
T2 construct: 2 nM WT PPARG LBD (E. coli expressed, His-TEV-Q203-Y477); fused on or other part: N-terminal His tag with TEV site on the PPARG LBD
Experimental: Compound potency (EC50) and maximal extent of NCOR1 recruitment to PPARG were assessed a TR-FRET binding assay measuring association of a biotinylated NCOR1 ID2 peptide (Biotin-[…]-amide) to PPARG/RXRA LBD heterodimer.
T2 sequence (O75376 2251-2273 limits assumed, one chain of several, further chain): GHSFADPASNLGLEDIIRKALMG

[3] = tested on: ANGPTL4, a PPARG target gene, in HT1197 (RXRA S427F mutation) cells; assay: Bladder cancer pharmacodynamic assay, HT1197 cell assay (qPCR of PPARG target gene ANGPTL4); format: cell-based; settings: Homo sapiens; for inhibition at 0.1 µM: read-out: % inhibition of ANGPTL4 @ 100 nM, 100 nM compound, 24 hours, relative to DMSO control; for EC50: 24 hours treatment, qPCR
Experimental: Quantitative PCR was performed using an ABI QuantStudio 7 Flex Reaction system. Data were analyzed and reported relative to DMSO control using the comparative Ct method (ΔΔCt).

| Structure (SMILES) | EC50 [1] | Emax [1] | Emax [2] | EC50 [2] | inhibition at 0.1 µM [3] | EC50 [3] |
| --- | --- | --- | --- | --- | --- | --- |
| CSc1ccc(C#N)nc1-c1cc(=O)c2c(F)cc(F)cc2[nH]1 [Example 8, 6-(5,7-difluoro-4-oxo-1,4-dihydroquinolin-2-yl)-5-(methylthio)picolinonitrile] | > 10000 nM | > 100% | > 100% | > 10000 nM |  |  |
| N#Cc1ccc(Cl)c(-c2cc(=O)c3cc(F)c(F)cc3[nH]2)n1 [Example 1, 5-chloro-6-(6,7-difluoro-4-oxo-1,4-dihydroquinolin-2-yl)picolinonitrile] | 10 to 100 nM | > 100% | > 100% | 10 to 100 nM | 91% |  |
| COc1ccc(C#N)nc1-c1cc(=O)c2c(F)cc(F)cc2[nH]1 [Example 7, 6-(5,7-difluoro-4-oxo-1,4-dihydroquinolin-2-yl)-5-methoxypicolinonitrile] | > 10000 nM | > 100% | > 100% | > 10000 nM | 23% |  |
| CN1CCC(c2c(F)cc3[nH]c(-c4cc(C#N)ncc4Cl)cc(=O)c3c2F)CC1 [Example 20, 5-chloro-4-(5,7-difluoro-6-(1-methylpiperidin-4-yl)-4-oxo-1,4-dihydroquinolin-2-yl)picolinonitrile] | 10 to 100 nM | > 100% | > 100% | 10 to 100 nM | 80% |  |
| CN(C)C(=O)[C@H]1CCCN(c2c(F)cc3[nH]c(-c4cc(C#N)ncc4Cl)cc(=O)c3c2F)C1 [Example 23, (S)-1-(2-(5-chloro-2-cyanopyridin-4-yl)-5,7-difluoro-4-oxo-1,4-dihydroquinolin-6-yl)-N,N-dimethylpiperidine-3-carboxamide] | < 10 nM | > 100% | > 100% | < 10 nM | 76% |  |
| CN1CCN(c2c(F)cc3[nH]c(-c4nc(C#N)ccc4Cl)cc(=O)c3c2F)CC1 [Example 13, 5-chloro-6-(5,7-difluoro-6-(4-methylpiperazin-1-yl)-4-oxo-1,4-dihydroquinolin-2-yl)picolinonitrile] | 10 to 100 nM | > 100% | > 100% | 10 to 100 nM | 78% |  |
| CN(C)C(=O)[C@@H]1CCCN(c2c(F)cc3[nH]c(-c4cc(C#N)ncc4Cl)cc(=O)c3c2F)C1 [Example 22, (R)-1-(2-(5-chloro-2-cyanopyridin-4-yl)-5,7-difluoro-4-oxo-1,4-dihydroquinolin-6-yl)-N,N-dimethylpiperidine-3-carboxamide] | 10 to 100 nM | > 100% | > 100% | < 10 nM | 91% |  |
| CS(=O)(=O)c1cnc(C#N)cc1-c1cc(=O)c2ccc(Cl)cc2[nH]1 [Example 30, 4-(7-chloro-4-oxo-1,4-dihydroquinolin-2-yl)-5-(methylsulfonyl)picolinonitrile] | < 10 nM | > 100% | > 100% | < 10 nM | 88% |  |
| N#Cc1cc(-c2cc(=O)c3ccc(Cl)cc3[nH]2)c(Cl)cn1 [Example 4, 5-chloro-4-(7-chloro-4-oxo-1,4-dihydroquinolin-2-yl)picolinonitrile] | < 10 nM | > 100% | > 100% | < 10 nM | 88% |  |
| CN(C)C(=O)C1CCN(c2c(F)cc3[nH]c(-c4cc(C#N)ncc4Cl)cc(=O)c3c2F)CC1 [Example 19, 1-(2-(5-chloro-2-cyanopyridin-4-yl)-5,7-difluoro-4-oxo-1,4-dihydroquinolin-6-yl)-N,N-dimethylpiperidine-4-carboxamide] | 10 to 100 nM | > 100% | > 100% | 10 to 100 nM | 84% |  |
| CN(C)C(=O)[C@H]1CCN(c2c(F)cc3[nH]c(-c4cc(C#N)ncc4Cl)cc(=O)c3c2F)C1 [Example 26, (S)-1-(2-(5-chloro-2-cyanopyridin-4-yl)-5,7-difluoro-4-oxo-1,4-dihydroquinolin-6-yl)-N,N-dimethylpyrrolidine-3-carboxamide] | < 10 nM | > 100% | > 100% | < 10 nM | 85% |  |
| N#Cc1ccc(Cl)c(-c2cc(=O)c3c(F)cc(F)cc3[nH]2)n1 [Example 3, 5-chloro-6-(5,7-difluoro-4-oxo-1,4-dihydroquinolin-2-yl)picolinonitrile] | < 10 nM | > 100% | > 100% | < 10 nM | 95% | 0.09 nM |
| CS(=O)(=O)c1cnc(C#N)cc1-c1cc(=O)c2c(F)cc(F)cc2[nH]1 [Example 29, 4-(5,7-difluoro-4-oxo-1,4-dihydroquinolin-2-yl)-5-(methylsulfonyl)picolinonitrile] |  |  |  |  | 90% | 0.49 nM |
| N#Cc1ncc(Cl)c(-c2cc(=O)c3c(F)cc(F)cc3[nH]2)n1 [Example 33, 5-chloro-4-(5,7-difluoro-4-oxo-1,4-dihydroquinolin-2-yl)pyrimidine-2-carbonitrile] | < 10 nM | > 100% | > 100% | < 10 nM | 31% |  |
| CN(C)C(=O)[C@H]1CCCN(c2c(F)cc3[nH]c(-c4cc(C#N)ncc4S(C)(=O)=O)cc(=O)c3c2F)C1 (single isomer, unassigned) [Example 34] | < 10 nM | > 100% | > 100% | < 10 nM | 87% |  |
| CN1CCN(c2c(F)cc3[nH]c(-c4cc(C#N)ncc4Cl)cc(=O)c3c2F)CC1=O [Example 24, 5-chloro-4-(5,7-difluoro-6-(4-methyl-3-oxopiperazin-1-yl)-4-oxo-1,4-dihydroquinolin-2-yl)picolinonitrile] | 10 to 100 nM | > 100% | > 100% | 10 to 100 nM | 87% |  |
| CCSc1cnc(C#N)cc1-c1cc(=O)c2c(F)cc(F)cc2[nH]1 [Example 12, 4-(5,7-difluoro-4-oxo-1,4-dihydroquinolin-2-yl)-5-(ethylthio)picolinonitrile] | > 10000 nM | < 100% | < 100% | > 10000 nM | 18% |  |
| C[S+]([O-])c1cnc(C#N)cc1-c1cc(=O)c2c(F)cc(F)cc2[nH]1 (stereo not shown) [Example 28, 4-(5,7-difluoro-4-oxo-1,4-dihydroquinolin-2-yl)-5-(methylsulfinyl)picolinonitrile] | 10 to 100 nM | > 100% | > 100% | 10 to 100 nM | 79% |  |
| N#Cc1ccc(Cl)c(-c2cc(=O)c3ccc(Cl)cc3[nH]2)n1 [Example 6, 5-chloro-6-(7-chloro-4-oxo-1,4-dihydroquinolin-2-yl)picolinonitrile] | < 10 nM | > 100% | > 100% | < 10 nM | 73% |  |
| N#Cc1ccc(Cl)c(-c2cc(=O)c3ccccc3[nH]2)n1 [Example 5, 5-chloro-6-(4-oxo-1,4-dihydroquinolin-2-yl)picolinonitrile] | 10 to 100 nM | > 100% | < 100% | 10 to 100 nM | 71% |  |
| N#Cc1cc(-c2cc(=O)c3c(F)cc(F)cc3[nH]2)c(Cl)cn1 [Example 2, 5-chloro-4-(5,7-difluoro-4-oxo-1,4-dihydroquinolin-2-yl)picolinonitrile] | < 10 nM | > 100% | > 100% | < 10 nM | 91% | 0.14 nM |
